These results are taken from article PMC8049054, “Systematic Assessment of Fragment Identification for Multitarget Drug Design” (Chemmedchem, 2021).

One experiment concerns T1, soluble epoxide hydrolase (sEH).
T1 construct: For the expression of sEH-H and sEH-Fl transformed E.coli BL21 (DE3) cells were grown in 5052; made in house; host or cells: E. coli BL21 (DE3)
Description: Differential scanning fluorimetry (DSF) screen on sEH. It is filed as binding. The conditions noted are these: 500 μM fragment, mean of duplicates. The source says: For the primary screen of this fragment library, we employed differential scanning fluorimetry (DSF, also known as thermal shift). DSF is generally applicable to a large panel of protein targets and provides a robust, low‐cost screening technology for fragment‐based approaches. ^[20] All five proteins of our interest are soluble and were recombinantly expressed in Escherichia coli. We performed an initial fragment screen on all five targets by DSF. The use of a uniform screening method for all targets ensured consistent data and provided the opportunity to identify false positive hits which interfered with the screening technology. The conditions of the DSF assay were optimized for the desired screening and validated with reference compounds (Table S1 in the Supporting Information). Compounds causing a positive thermal shift ΔT m≥1.0 °C were considered as active.
DSF measurement of the PDFL (single concentration of 500 μM, duplicates, 96‐well format) on the five proteins retrieved 19 fragment hits on sEH, 28 on LTA4H, 12 on 5‐LOX, 16 on RXRα, and 14 on FXR, respectively. Melting point distributions of the screening library for all five targets are depicted in Figure 2. Amongst the hits, three compounds (Table S2) gave a positive signal on all five proteins likely qualifying them as pan assay interference compounds (PAINS). ^[21] Fragments binding to multiple targets (Scheme 1) were identified for seven out of ten target combinations (Figure 2, Table 1). Among them, fragments 4, 6, 7, and 9 match previously identified privileged scaffolds for fatty acid mimetics. ^[14] […] Active ligands containing N‐phenylbenzamide 6 and the N‐phenylbenzylamine 7 have been described for four of the protein targets. Furthermore, indole, which has been characterized as a privileged heterocycle for fatty acid mimetics, ^[14] is present in fragments 5 and 10. Dual 5‐LOX/RXR ligand 1 was present in 5‐LOX inhibitors, while dual FXR/LTA4H modulator 3 is found among known FXR ligands. Fragments 2 (sEH/5‐LOX) and 8 (LTA4H/RXR) are novel scaffolds not appearing in known ligands of any of the five targets.
Figure S3: SDS page of the purified proteins (proteins RXRα and FXR after TEV cleavage) using a 14% polyacrylamide gel, which was stained with coomassi. Precision Plus Protein™ Unstained Protein Standard s (Bio-Rad Laboratories, Inc. ) was used […]
All experiments were performed as duplicates using MicroAmp fast 96 -well plates. Each plate contained 80 different compound wells and 16 DMSO control wells. First 0.8 µl of a 25 mM Preswick Library Fragment dilution in DMSO or pure DMSO were placed in each of the well (final concentration 500 µM). Then 39.2 µl of the master mi x (containing protein, Triton x -100, SYPRO® Orange Protein Gel Stain and buffer that corresponds to the tested protein) were added.
Table S4: Final concentrations in DSF experiments:
Protein Final concentrations under screening conditions […]
glycerol, 0.01% (W/V) Triton X-100, 2.05 % DMSO and 2.5x SYPRO® with a pH = 7 […]
The measurements were performed using a iCycler iQ™ Single -Color Real Time PCR device with a heat rate of 1 °C per min, an excitation wavelength of 490 nm and an emission wavelength of 570 nm. The first derivation calculated by MyiQ Op tical Software 1.0 was analyzed using Microsoft Office Excel 2013 by comparing the maxima. A shift of 1 °C (in case of 5 -LOX 0.9°C) or more compared to the DMSO control were assumed as potentially binding of the fragment.
(1 picture or pasted object on this page, not shown here)
In the case of `c1ccc(N2CCNCC2)nc1` [Compound 1], the “DSF/ΔT m sEH” value was found to be 0.0±0.0 °C.
Same read-out and setting: as for `Cc1cc(=O)n(-c2ccc(C)c(C)c2)[nH]1` [Compound 2], the figure is 2.2±0.0 °C; as for `CCCCOc1cc(C(=O)OC)ccc1N` [Compound 3], 0.0±0.0 °C; as for `Oc1ccc(Cc2ccccc2)cc1` [Compound 4], 0.0±0.0 °C.
The same measure, in the same setting: as for `Oc1ccc2cc[nH]c2c1` [Compound 5], the figure is 0.0±0.0 °C; as for `Cc1ccccc1C(=O)Nc1ccccc1` [Compound 6], 2.0±0.0 °C; as for `CCN(Cc1ccccc1)c1ccccc1` [Compound 7], 1.0±0.0 °C.
Consider `Oc1ccc(-c2ccc(F)cc2F)cc1` [Compound 9], for which the “DSF/ΔT m sEH” value was found to be 1.0±0.0 °C.
Regarding `Fc1ccc(-c2c[nH]c3ccccc23)cc1` [Compound 10], the “DSF/ΔT m sEH” value stood at 0.6±0.7 °C.

Another experiment has as its target T2, RXRα (Homo sapiens, UniProt P19793).
T2 construct: MBP (N, cleaved yes); poly-N-tag, His8-tag, TEV site (N, cleaved yes); made in house; host or cells: E. coli T7-express with pGro7 (GroEL/ES)
T2 sequence (P19793 225-462): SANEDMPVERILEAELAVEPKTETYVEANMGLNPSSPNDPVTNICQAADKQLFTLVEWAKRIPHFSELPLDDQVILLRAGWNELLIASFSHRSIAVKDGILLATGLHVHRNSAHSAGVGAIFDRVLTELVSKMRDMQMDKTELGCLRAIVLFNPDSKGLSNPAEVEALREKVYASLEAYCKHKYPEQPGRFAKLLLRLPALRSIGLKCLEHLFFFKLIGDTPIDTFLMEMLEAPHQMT
Description: ITC measurement RXRα LBD. The format is binding. Also on record: key: n.b.: no binding; w.b.: weak binding. The conditions noted are these: 50 μM protein, 250 μM compound, 25 °C. The procedure:
(§1) For hit validation, we employed secondary assays with orthogonal readouts to confirm fragment activities. Biochemical activity assays were chosen for the enzymes sEH, LTA4H, and 5‐LOX. […] RXRα and FXR modulation was assessed in cell‐based hybrid reporter gene assays. All ten compounds were tested at a single concentration of 500 μM in the sEH and LTA4H activity assays and with a concentration of 100 μM on 5‐LOX, RXRα, and FXR. Fragments showing an inhibition greater than 50 % (sEH‐H and LTA4H) or greater than 70 % (5‐LOX) as well as the hits determined in the DSF experiments were further characterized in full concentration‐response curves between 0.1 and 1000 μM. […] As alternative cell‐free assay we employed isothermal titration calorimetry (ITC) to determine binding affinity of the fragments towards the LBDs of both nuclear receptors. ITC was performed with a protein concentration of 50 μM and compound concentrations of 250 μM. […]
(§2) Final concentration per well was 3 nM sEH-Fl, 0.001 % Triton X-100, 25 mM Bis-tris, 0.1 mg/ml BSA, pH = 7.0, 1.6% DMSO […]
(In general: In ITC the heat of successive injections is recorded.)
On to `c1ccc(N2CCNCC2)nc1` [Compound 1], for which the “RXRα K d” value is recorded as “n.b”.
The same measure, in the same setting: under `Oc1ccc(-c2ccc(F)cc2F)cc1` [Compound 9] stands “n.b”; under `Fc1ccc(-c2c[nH]c3ccccc23)cc1` [Compound 10], “n.b”.

For a further experiment, the target named is T3, FXR (Homo sapiens, UniProt Q96RI1).
T3 construct: His6-tag and TEV site (N, cleaved yes); made in house; host or cells: E. coli BL21 (DE3)
T3 sequence (Q96RI1 244-472 isoform Q96RI1-2): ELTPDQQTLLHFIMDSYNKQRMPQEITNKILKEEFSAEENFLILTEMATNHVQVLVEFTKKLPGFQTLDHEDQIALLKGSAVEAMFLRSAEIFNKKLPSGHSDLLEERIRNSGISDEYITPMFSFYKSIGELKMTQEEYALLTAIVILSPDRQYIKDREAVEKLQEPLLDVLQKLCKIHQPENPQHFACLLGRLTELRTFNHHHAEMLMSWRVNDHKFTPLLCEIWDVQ
Description: ITC measurement FXR LBD. It is filed as binding. Also on record: key: n.b.: no binding; w.b.: weak binding. The conditions noted are these: 50 μM protein, 250 μM compound, 25 °C. Here is the method: as §1, §2
On to `c1ccc(N2CCNCC2)nc1` [Compound 1], for which the “FXR K d” value is on record as “n.b”.
On to `Oc1ccc2cc[nH]c2c1` [Compound 5], for which the “FXR K d” value is on record as “n.b”.
Consider `Clc1ccc2c(c1)Nc1ccccc1CC2` [Compound 8], for which the “FXR K d” value is “w.b”.
Take `Fc1ccc(-c2c[nH]c3ccccc23)cc1` [Compound 10]: the “FXR K d” value is “n.b”.
